Results published in US20140066394A1, “Substituted 6-(Benzylamino) Purine Riboside Derivatives, Use Thereof and Compositions Containing These Derivatives” (Biopatterns, S.R.O, priority 2009, published 2014).
pIC50: −log10 of the molar value.

Key:
[1] = tested on: Human T-lymphoblastic leukemia cell line CEM; experiment: In vitro cytotoxicity, Calcein AM assay, CEM; type: cell-based; settings: Homo sapiens, 72 hours
Source text: (§1) Low cytotoxicity of the compounds is the major property determining the cosmetic use. One of the parameters used, as the basis for cytotoxicity assays, is the metabolic activity of viable cells. For example, a microtiter assay, which uses the Calcein AM, is now widely used to quantitate cell proliferation and cytotoxicity. For instance, this assay is used in drug screening programs and in chemosensitivity testing. Because only metabolically active cells cleave Calcein AM, these assays detect viable cells exclusively. The quantity of […] Calcein AM corresponds to the number of vital cells in the culture.
(§2) Human T-lymphoblastic leukemia cell line CEM; promyelocytic HL-60 and monocytic U937 leukemias; breast carcinoma cell lines MCF-7, BT549, MDA-MB-231; glioblastoma U87MG cells; cervical carcinoma cells HELA; sarcoma cells U2OS and Saos2; hepatocellular carcinoma HepG2; mouse fibroblasts NIH3T3; mouse immortalized bone marrow macrophages B2.4 and B10A.4; P388D1 and L1210 leukemia; B16 and B16F10 melanomas; human osteosarcoma HOS; human myeloid leukemia K-562; human skin melanoma G-361 were used for routine screening of compounds. The cells were maintained in Nunc/Corning 80 cm^2 plastic tissue culture flasks and cultured in cell culture medium (DMEM with 5 g/l glucose, 2 mM glutamine, 100 U/mL penicillin, 100 μg/mL streptomycin, 10% fetal calf serum and sodium bicarbonate).
(§3) The cell suspensions that were prepared and diluted according to the particular cell type and the expected target cell density (2.500-30.000 cells per well based on cell growth characteristics) were added by pipette ([…]) into 96/well microtiter plates. Inoculates were allowed a pre-incubation period of 24 hours at 37° C. and 5% CO2 for stabilisation. Four-fold dilutions of the intended test concentration were added at time zero in 20 μl aliquots to the microtiter plate wells. Usually, the compound tested was evaluated at six 4-fold dilutions. In routine testing, the highest well concentration was 100 μM, but it can be the matter of change dependent on the agent. All drug concentrations were examined in duplicates. Incubations of cells with the tested compounds lasted for 72 hours at 37° C., in 5% CO2 atmosphere and 100% humidity. At the end of the incubation period, the cells were assayed by using Calcein AM. Ten microliters of the stock solution were pipetted into each well and incubated for 1 hour. Fluorescence (FD) was measured with the Labsystem FIA Reader Fluoroscan Ascent (UK). The tumour cell survival (GI50) was calculated using the following equitation: TCS=(FDdrug exposed well/mean FDeontrol wells)×100%. The GI50 value, the drug concentration lethal to 50% of the tumour cells, was calculated from the obtained dose response curves.
(§4) Zero cytotoxicity of the novel compounds is the basic prerequisite for agricultural and tumor-unrelated applications. The cytoxicity of the novel compounds was tested on a panel of cell lines of different histogenetic and species origin (Table 9). We show herein that equal activities were found in all tumour cell lines tested, however, the non-malignant cells, e.g. NIH3T3 fibroblasts and normal human lymphocytes, were resistant to 2,6-disubstituted purine ribosides induced cytotoxicity. The compounds listed in Tab. 9 can be divided into 2 groups. The first group contains “classical cytokinins” represented by 6-substituted purine ribosides (which are known in the prior art). The second group contains the novel 2,6-disubstituted derivatives of these compounds. […] GI50 for NIH3T3 fibroblasts and normal human lymphocytes was always higher than 100 μM. The novel derivatives show no toxicity to normal and tumour cells in concentrations about 100 μM and thus are more suitable for agricultural applications than “classical cytokinins” (6-substituted purine riboside derivatives).

[2] = tested on: human skin melanoma G-361; experiment: In vitro cytotoxicity, Calcein AM assay, G-361; type: cell-based; settings: Homo sapiens, G-361, 72 hours
Source text: as §1, §2, §3, §4

human osteosarcoma HOS = experiment: In vitro cytotoxicity, Calcein AM assay, HOS; type: cell-based; settings: Homo sapiens, 72 hours
Source text: as §1, §2, §3, §4

neutrophils = experiment: Neutrophil degranulation, release of myeloperoxidase, ELISA; type: cell-based; settings: Homo sapiens, primed neutrophils, ELISA (FIG. 4)
Experimental: Neutrophils were cultured at 2×10^6 cells/ml in RPMI1640 medium containing human serum antibiotics and 20 ng/ml TNFα for 10 minutes prior to addition of a range of concentrations of compound 10. Release of MPO was monitored after a 30 minute period by ELISA. Data are mean of duplicate measurements representative of 5 separate experiments.
Anti-inflammatory effects against neutrophils were determined by assessing effects of several of the compounds on neutrophil inflammatory activity (superoxide generation, secretion of chemoattractant IL8 and degranulation to release myeloperoxidase). Neutrophils were isolated from human blood to a purity of greater than 95% and were cultured in RPMI1640 medium containing 2% human AB serum, 2 mM L-glutamine and antibiotics (100 U/ml penicillin, […] streptomycin). Neutrophils were primed for 30 minutes with 50 ng/ml GM-CSF prior to treatment with the bacterial stimulant fMLP (100 ng/ml) and measurement of superoxide generation in a lucigenin based assay (see Pongracz J and Lord J M 1998, Biochem. Biophys. Res. Commun. 247, 624-629) and release of IL8 and myeloperoxidase using an ELISA method. The novel compounds were added to the culture at a range of concentrations (0.1-100 μM) 10 minutes prior to addition of fMLP. […]

[3] = tested on: promyelocytic HL-60 leukemia; experiment: In vitro cytotoxicity, Calcein AM assay, HL60; type: cell-based, human; settings: Homo sapiens, HL-60, 72 hours
Source text: as §1, §2, §3, §4

[4] = tested on: human myeloid leukemia K-562; experiment: In vitro cytotoxicity, Calcein AM assay, K-562; type: cell-based; settings: Homo sapiens, K562, 72 hours
Source text: as §1, §2, §3, §4

[5] = tested on: Peripheral blood neutrophils; experiment: Neutrophil apoptosis, Giemsa stain and light microscopy; type: cell-based; settings: Homo sapiens, 20 hours culture, read-out: IC50 of inhibition of neutrophil apoptosis
Experimental: Neutrophils were cultured at 2×10^6 cells/ml for 20 h in RPMI1640 medium containing human serum and antibiotics and a range of concentrations of compound 10. Apoptosis was determined by differential Giemsa staining and light microscopy to determine cells with an apoptotic nuclear morphology. Data are mean±SD of 5 separate experiments.
Effects of the compounds on neutrophil apoptosis were also determined as an indication of utility in diseases where their survival is dysregulated such as systemic vasculitis and chronic inflammatory disease. Peripheral blood neutrophils were cultured for 20 hours in RPMI1640 medium containing 2% human AB serum, 2 mM L-glutamine and antibiotics (100 U/ml penicillin, […] streptomycin) and their apoptosis determined by staining with Giemsa stain and observing an apoptotic morphology by light microscopy (see Pongracz J et al. 1999, J. Biol. Chem. 274: 37329-37334). Compound 10 inhibited neurophil apoptosis with an IC50 of 1 μM (FIG. 4).

pIC50 (neutrophils): 5.40
pIC50 [5]: 6.00
Structure (SMILES): COc1cccc(CNc2nc(Cl)nc3c2ncn3C2OC(CO)C(O)C2O)c1O (stereo not shown) [Compound 10, 2-Chloro-6-(2-hydroxy-3-methoxybenzylamino)purine riboside]
GI50 [1]: > 100 µM
GI50 [2]: > 100 µM
GI50 (human osteosarcoma HOS): > 100 µM
GI50 [3]: > 100 µM
GI50 [4]: > 100 µM
